Data: patent US7037644B1, “Means and methods for monitoring non-nucleoside reverse transcriptase inhibitor antiretroviral therapy and guiding therapeutic decisions in the treatment of HIV/AIDS” (ViroLogic, Inc., priority 1998, dated 2006)
“Also recorded” adds a separate entry of the source.

Key:
Y181 C mutation variant = details: Y181C selected during nevirapine monotherapy; cited from earlier work
[1] = test system: RTV-964, patient 98-964 (RT Y181I); assay: Phenotypic susceptibility assay (patient RTV); assay type: cell-based, HIV-1; details: patient RTV pool
Method: (§1) The resistance test vectors containing a functional luciferase gene cassette were constructed and host cells were transfected with the resistance test vector DNA. The resistant test vectors contained patient-derived reverse transcriptase and protease sequences that were either susceptible or resistant to the antiretroviral agents, such as nucleoside reverse transcriptase inhibitors, non-nucleoside reverse transcriptase inhibitors and protease inhibitors. […] The IC50 values were determined by plotting percent drug inhibition vs. log10 drug concentration.
(§2) Host cells were seeded in 10-cm-diameter dishes and were transfected several days after plating with resistance test vector plasmid DNA and the envelope expression vector. […] HIV capsid protein (p24) levels in the harvested cell culture media were determined by an EIA method as described by the manufacturer (SIAC; Frederick, Md.). […] The inhibitory effect of the drug was determined using the following equation: % luciferase inhibition=1−(RLUluc [drug]÷RLUluc)×100 where RLUluc [drug] is the relative light unit of luciferase activity in infected cells in the presence of drug and RLUluc is the Relative Light Unit of luciferase activity in infected cells in the absence of drug. […]

[2] = test system: RTV-300, patient 97-300 (RT K32N, M184V, Y188L); assay: Phenotypic susceptibility assay (patient RTV); assay type: cell-based, HIV-1; details: patient RTV pool
Method: as §1, §2

[3] = molecular target: RT with P236L substitution (Human immunodeficiency virus type 1 group M subtype B, UniProt P04585, P823L); details: P236L substitution sensitizes RT; cited from earlier work
[4] = test system: RTV with L100I mutation alone; assay: Phenotypic susceptibility assay (site directed mutant RTV); assay type: cell-based, HIV-1
Description: (§3) The resistance test vectors containing a functional luciferase gene cassette were constructed and host cells were transfected with the resistance test vector DNA. The resistant test vectors contained patient-derived reverse transcriptase and protease sequences that were either susceptible or resistant to the antiretroviral agents, such as nucleoside reverse transcriptase inhibitors, non-nucleoside reverse transcriptase inhibitors and protease inhibitors. The resistance test vector viral particles produced by transfecting the resistance test vector DNA into host cells, either in the presence or absence of protease inhibitors, were used to infect target host cells grown either in the absence of NRTI or NNRTI or in the presence of increasing concentrations of the drug. The amount of luciferase activity produced in infected target host cells in the presence of drug was compared to the amount of luciferase produced in infected target host cells in the absence of drug. Drug resistance was measured as the amount of drug required to inhibit by 50% the luciferase activity detected in the absence of drug (inhibitory concentration 50%, IC50). The IC50 values were determined by plotting percent drug inhibition vs. log10 drug concentration.
(§4) Host cells were seeded in 10-cm-diameter dishes and were transfected several days after plating with resistance test vector plasmid DNA and the envelope expression vector. Transfections were performed using a calcium-phosphate precipitation procedure. The cell culture media containing the DNA precipitate was replaced with fresh medium, from one to 24 hours, after transfection. Cell culture media containing resistance test vector viral particles was harvested one to four days after transfection and was passed through a […] filter before being stored at […]. HIV capsid protein (p24) levels in the harvested cell culture media were determined by an EIA method as described by the manufacturer (SIAC; Frederick, Md.). Before infection, target cells (293 and 293/T) were plated in cell culture media. Control infections were performed using cell culture media from mock transfections (no DNA) or transfections containing the resistance test vector plasmid DNA without the envelope expression plasmid. One to three or more days after infection the media was removed and cell lysis buffer (Promega) was added to each well. Cell lysates were assayed for luciferase activity (FIG. 3). The inhibitory effect of the drug was determined using the following equation: % luciferase inhibition=1−(RLUluc [drug]÷RLUluc)×100 where RLUluc [drug] is the relative light unit of luciferase activity in infected cells in the presence of drug and RLUluc is the Relative Light Unit of luciferase activity in infected cells in the absence of drug. IC50 values were obtained from the sigmoidal curves that were generated from the data by plotting the percent inhibition of luciferase activity vs. the log10 drug concentration. The drug inhibition curves are shown in (FIG. 3).
The mutations Y188L, L100I and K103N were introduced alone and in combinationn into resistance test vectors using the mega-primer method for site-directed mutagenesis (Sakar and Sommar, Ibid.).

Y188H-RTV = assay: as above; assay type: cell-based, HIV-1; details: Y188H alone
Method: as §1, §2

[5] = test system: RTV-268, patient 97-268 (RT M41L, D67N, M184V, L210W, T215Y, K219Q, P236L); assay: Phenotypic susceptibility assay (patient RTV); assay type: cell-based, HIV-1; details: patient virus RTV-268 vs reference virus
Description: as §3, §4
A resistance test vector was constructed as described in Example 1 from a patient sample designated 97-268. This patient had been treated with AZT and 3TC (NRTIs), indinavir and saquinavir (PRIs) and delavirdine (an NNRTI) for periods varying from 1 month to 2 years. Isolation of viral RNA and RT/PCR was used to generate a patient derived segment that comprised viral sequences coding for all of PR and amino acids 1-313 of RT. The patient derived segment was inserted into a indicator gene viral vector to generate a resistance test vector designated RTV-268. RTV-268 was then tested using the phenotypic susceptibility assay to determine accurately and quantitatively the level of susceptibility to a panel of anti-retroviral drugs. This panel of anti-retroviral drugs comprised members of the classes known as NRTIs (AZT, 3TC, d4T, ddI and ddC), NNRTIs (delavirdine and nevirapine), and PRIs (indinavir, nelfinavir, ritonavir, and saquinavir). An IC50 was determined for each drug tested. […]

SMILES	reduction in sensitivity (Y181 C mutation variant) [fold]	decrease in susceptibility (fold, IC50) [1] [fold]	decrease in susceptibility (fold, IC50) [2]	reduction of IC50 [3]	loss of susceptibility (fold, IC50) vs wild type control RTV [4] [fold]	loss of susceptibility (fold, IC50) vs wild type control RTV (Y188H-RTV) [fold]	change in susceptibility [5]
Cc1ccnc2c1NC(=O)c1cccnc1N2C1CC1 [nevirapine]	100	750	greater than 800 fold	7- to 10 fold	3	3.5	no change; also recorded: same as wild type
CC(C)Nc1cccnc1N1CCN(C(=O)c2cc3cc(NS(C)(=O)=O)ccc3[nH]2)CC1 [delavirdine]			25 fold				
